Assay results: patent publication US6686382B2, “Sulfonamides and derivatives thereof that modulate the activity of endothelin” (Encysive Pharmaceuticals Inc., priority 1999, dated 2004)
Structures can show the parent of a compound that is named as a salt.

How the values were obtained:
human ETA receptors = target: T1, human ETA receptors (Homo sapiens, UniProt P25101); assay: Endothelin binding inhibition, Binding Test #1: inhibition of binding to ETA receptors (TE 671 cell membranes); details: relative to N-(4-chloro-3-methyl-5-isoxazolyl)-2-{[3,4-(methylenedioxy)-6-methylphenyl)acetyl]-thiophene-3-sulfonamide (= 1.0)
T1 construct: endogenous in cells; host or cells: TE 671 cells (ATCC HTB 139), membrane preparation
T1 sequence (P25101 21-427): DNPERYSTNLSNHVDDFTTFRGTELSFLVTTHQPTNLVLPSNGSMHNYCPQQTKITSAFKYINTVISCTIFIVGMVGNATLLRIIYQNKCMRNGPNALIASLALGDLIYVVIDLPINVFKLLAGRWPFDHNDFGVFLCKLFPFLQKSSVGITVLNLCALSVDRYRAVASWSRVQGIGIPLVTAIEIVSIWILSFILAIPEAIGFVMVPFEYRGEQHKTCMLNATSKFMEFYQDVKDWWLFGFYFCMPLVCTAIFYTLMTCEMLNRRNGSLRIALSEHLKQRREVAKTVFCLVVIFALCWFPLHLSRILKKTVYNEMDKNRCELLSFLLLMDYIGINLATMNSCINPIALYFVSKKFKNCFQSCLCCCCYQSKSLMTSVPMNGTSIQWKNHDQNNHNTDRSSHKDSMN
Description: Compounds that are potential endothelin antagonists are identified by testing their ability to compete with ^125I-labeled ET-1 for binding to human ETA receptors or ETB receptors present on isolated cell membranes. The effectiveness of the test compound as an antagonist or agonist of the biological tissue response of endothelin can also be assessed by measuring the effect on endothelin induced contraction of isolated rat thoracic aortic rings. The ability of the compounds to act as antagonists or agonists for ETB receptors can be assess by testing the ability of the compounds are to inhibit endothelin-1 induced prostacyclin release from cultured bovine aortic endothelial cells.
A. Endothelin Binding Inhibition—Binding Test #1: Inhibition of Binding to ETA Receptors
TE 671 cells (ATCC Accession No. HTB 139) express ETA receptors. These cells were grown to confluence in T-175 flasks. Cells from multiple flasks were collected by scraping, pooled and centrifugedfor 10 min at 190×g. The cells were resuspended in phosphate buffered saline (PBS) containing 10 mM EDTA using a Tenbroeck homogenizer. The suspension was centrifuged at 4° C. at 57,800×g for 15 min, the pellet was resuspended in 5 ml of buffer A (5 mM HEPES buffer, pH 7.4 containing aprotinin (100 KIU/ml)) and then frozen and thawed once. 5 ml of Buffer B (5 mM HEPES Buffer, pH 7.4 containing 10 mM MnCl2 and 0.001% deoxyribonuclease Type 1) was added, the suspension mixed by inversion and then incubated at 37° C. for 30 minutes. The mixture was centrifuged at 57,800×g as described above, the pellet washed twice with buffer A and then resuspended in buffer C (30 mM HEPES buffer, pH 7.4 containing aprotinin (100 KIU/ml) to give a final protein concentration of 2 mg/ml and stored at −70° C. until use.
The membrane suspension was diluted with binding buffer (30 mM HEPES buffer, pH 7.4 containing 150 mM NaCl, 5 mM MgCl2, 0.5% Bacitracin) to a concentration of 8 μg/50 μl. ^125I-endothelin-1 (3,000 cpm, […]) was added to 50 μL of either: (A) endothelin-1 (for non specific binding) to give a final concentration 80 nM); (B) binding buffer (for total binding); or (C) a test compound (final concentration 1 nM to 100 μM). The membrane suspension (50 μL), containing up to 8 μg of membrane protein, was added to each of (A), (B), or (C). Mixtures were shaken, and incubated at 4° C. for 16-18 hours, and then centrifuged at 4° C. for 25 min at 2,500×g. Alternatively, the incubation was conducted at 24° C. […] This, must be kept in mind when comparing IC50 concentrations among compounds provided herein.
The supernatant, containing unbound radioactivity, was decanted and the pellet counted on a Genesys multiwell gamma counter. The degree of inhibition of binding (D) was calculated according to the following equation: [formula]
Each test was generally performed in triplicate.

| Structure (SMILES) | ETA ACTIVITY (ETA antagonist activity relative to reference compound) (human ETA receptors) | melting point [°C] |
| --- | --- | --- |
| CO/N=C(\C)c1cc(C)cc(C)c1NC(=O)c1sccc1S(=O)(=O)Nc1onc(C)c1Cl [Compound 22, 3-{[(4-chloro-3-methyl-5-isoxazolyl)amino]sulfonyl}-N-{2,4-dimethyl-6-[(methyloxy)ethanimidoyl]phenyl}-2-thiophene carboxamide] | 23.6 | 140 to 145 |
| CC(=O)c1cc2c(cc1NC(=O)c1sccc1S(=O)(=O)Nc1onc(C)c1C)OCO2 [3-{[(3,4-dimethyl-5-isoxazolyl)amino]sulfonyl}-N-(2-acetyl-4,5-methylenedioxyphenyl)-2-thiophenecarboxamide] | 0.05 |  |
| Cc1cc(C)c(OS(=O)(=O)N(C)C)c(C)c1NC(=O)c1sccc1S(=O)(=O)Nc1onc(C)c1Cl [Compound 24, 3-{[(3-{[(4-chloro-3-methyl-5-isoxazolyl)amino]sulfonyl}-2-thiophenyl)carbonyl]amino}-2,4,6-trimethylphenyl-N,N-dimethylsulfamate] |  | 169 to 174 |
| Cc1cc(C)c(NC(=O)c2sccc2S(=O)(=O)Nc2onc(C)c2Cl)c(C(C)O)c1 (stereo not drawn) (as salt: Na) [Compound 18, 3-{[(4-chloro-3-methyl-5-isoxazolyl)amino]sulfonyl}-N-[2-(1-hydroxyethyl)-4,6-dimethylphenyl]-2-thiophene carboxamide] |  | 147 to 154 |
| Cc1cc(C)c(NC(=O)c2sccc2S(=O)(=O)Nc2onc(C)c2Cl)c(C(=O)N(C)CC(C)(C)C)c1 [Compound 40, 3-{[(4-chloro-3-methyl-5-isoxazolyl)amino]sulfonyl}-N-(2,4-dimethyl-6-{[methyl(2,2-dimethylpropyl)amino]carbonyl}phenyl)-2-thiophenecarboxamide] | 2.7 | 174 to 176 |
| CC(=O)c1c(C)c(C)cc(C)c1NC(=O)c1sccc1S(=O)(=O)Nc1onc(C)c1Cl [Compound 30, N-(2-acetyl-3,4,6-trimethylphenyl)-3-{[(4-chloro-3-methyl-5-isoxazolyl)amino]sulfonyl}-2-thiophenecarboxamide] | 103.8 | 223 to 225 |
| Cc1cc(C)c(NC(=O)c2sccc2S(=O)(=O)Nc2onc(C)c2Cl)c(C(=O)O)c1 [3-{[(4-chloro-3-methyl-5-isoxazolyl)amino]sulfonyl}-N-(2-carboxyl-4,6-dimethylphenyl)-2-thiophenecarboxamide] | 0.05 |  |
| COC(=O)c1c(C)cc(C)c(NC(=O)c2sccc2S(=O)(=O)Nc2onc(C)c2Cl)c1C [3-{[(4-chloro-3-methyl-5-isoxazolyl)amino]sulfonyl}-N-(3-methoxycarbonyl-2,4,6-trimethylphenyl)-2-thiophenecarboxamide] | 4.7 |  |
| Cc1cc(C)c(NC(=O)c2sccc2S(=O)(=O)Nc2onc(C)c2Cl)c(C#N)c1C [Compound 32, 3-{[(4-chloro-3-methyl-5-isoxazolyl)amino]sulfonyl}-N-(2-cyano-3,4,6-trimethylphenyl)-2-thiophenecarboxamide] | 55.7 |  |

Now from value to compound:

| ETA ACTIVITY (ETA antagonist activity relative to reference compound) (human ETA receptors) | melting point [°C] | Structure (SMILES) |
| --- | --- | --- |
|  | 152 to 155 | CCCS(=O)(=O)c1cc(C)cc(C)c1NC(=O)c1sccc1S(=O)(=O)Nc1onc(C)c1Cl [Compound 48, 3-{[(4-chloro-3-methyl-5-isoxazolyl)amino]sulfonyl)-N-[2,4-dimethyl-6-(propylsulfonyl)phenyl]-2-thiophenecarboxamide] |
| 0.15 |  | CC(=O)c1cc2c(cc1NC(=O)c1sccc1S(=O)(=O)Nc1onc(C)c1Cl)OCO2 [3-{[(4-chloro-3-methyl-5-isoxazolyl)amino]sulfonyl}-N-(2-acetyl-4,5-methylenedioxyphenyl)-2-thiophenecarboxamide] |
| 0.1 | 163 to 167 | CCCc1c(O)c(C(C)=O)cc(C(C)=O)c1NC(=O)c1sccc1S(=O)(=O)Nc1onc(C)c1Cl [Compound 36] |
| 26.4 |  | Cc1cc(C)c(NC(=O)c2sccc2S(=O)(=O)Nc2onc(C)c2Cl)c(C(C)O)c1 (stereo not drawn) [Compound 18, 3-{[(4-chloro-3-methyl-5-isoxazolyl)amino]sulfonyl}-N-[2-(1-hydroxyethyl)-4,6-dimethylphenyl]-2-thiophene carboxamide] |
| 1.04 |  | Cc1cc(C)c(NC(=O)c2sccc2S(=O)(=O)Nc2onc(C)c2Cl)c(C(N)=O)c1 [3-{[(4-chloro-3-methyl-5-isoxazolyl)amino]sulfonyl}-N-(2-carbamoyl-4,6-dimethylphenyl)-2-thiophenecarboxamide] |
| 3.8 | 152 to 154 | CCc1cc(C)cc(C)c1NC(=O)c1sccc1S(=O)(=O)Nc1onc(C)c1Cl [Compound 50, 3-{[(4-chloro-3-methyl-5-isoxazolyl)amino]sulfonyl}-N-(2-ethyl-4,6-dimethylphenyl)-2-thiophenecarboxamide] |
| 2.0 | 170 to 175 | Cc1nc(C)c(NC(=O)c2sccc2S(=O)(=O)Nc2onc(C)c2Cl)c(C)n1 [Compound 28, 3-{[(4-chloro-3-methyl-5-isoxazolyl)amino]sulfonyl}-N-(2,4,6-trimethyl-5-pyrimidinyl)-2-thiophenecarboxamide] |
| 18.6 |  | Cc1cc(C)c(NC(=O)c2sccc2S(=O)(=O)Nc2onc(C)c2C)c(C#N)c1C [Compound 9, N-(2-cyano-3,4,6-trimethylphenyl)-3-{[(3,4-dimethyl-5-isoxazolyl)amino]sulfonyl}-2-thiophenecarboxamide] |
| 9.4 | 155 to 158 | Cc1cc(C)c(OCC2CC2)c(C)c1NC(=O)c1sccc1S(=O)(=O)Nc1onc(C)c1Cl [Compound 26, 3-{[(4-chloro-3-methyl-5-isoxazolyl)amino]sulfonyl}-N-{3-[(cyclopropylmethyl)oxy]-2,4,6-trimethylphenyl}-2-thiophenecarboxamide] |
| 6.4 |  | Cc1cc(C)c(CC(=O)c2sccc2S(=O)(=O)Nc2onc(C)c2Cl)c(C)c1 [3-{[(4-chloro-3-methyl-5-isoxazolyl)amino]sulfonyl}-2-(2,4,6-trimethylphenylacetyl)thiophene] |
| 2.4 |  | Cc1cc(C)c(NC(=O)c2sccc2S(=O)(=O)Nc2onc(C)c2Cl)c(C)c1 [3-{[(4-chloro-3-methyl-5-isoxazolyl)amino]sulfonyl}-N-(2,4,6-trimethylphenyl)-2-thiophenecarboxamide] |
| 1.1 | 205 to 207 | Cc1cc(-c2ncco2)cc(C)c1NC(=O)c1sccc1S(=O)(=O)Nc1onc(C)c1Cl [Compound 52, 3-{[(4-chloro-3-methyl-5-isoxazolyl)amino]sulfonyl}-N-[2,6-dimethyl-4-(1,3-oxazol-2-yl)phenyl]-2-thiophenecarboxamide] |
| 14.4 |  | Cc1cc(C)c(NC(=O)c2sccc2S(=O)(=O)Nc2onc(C)c2Cl)c(C(=O)N(C)C)c1 [Compound 20, 3-{[(4-chloro-3-methyl-5-isoxazolyl)amino]sulfonyl}-N-{2-[(dimethylamino)carbonyl]-4,6-dimethylphenyl)-2-thiophene carboxamide] |
